Test results published in US12459967B2, “Modulators of 5′-nucleotidase, ecto and the use thereof” (Arcus Biosciences, Inc., priority 2016, dated 2025).

These compounds were tested against T1, human CD73 (Homo sapiens, UniProt P21589) (assay: Inhibition of ecto-5′-nucleotidase (CD73) activity in CHO-CD73 cells, phosphate colorimetric readout). Details: CHO-K1 cells stably transfected with human CD73, 2500 cells per well, 25 μM AMP substrate, 50 minutes incubation at 37° C.; read-out: Potency: CD73 IC50.
T1 construct: host or cells: CHO-K1 (suspension pool CHO-CD73)
T1 sequence (P21589 27-549): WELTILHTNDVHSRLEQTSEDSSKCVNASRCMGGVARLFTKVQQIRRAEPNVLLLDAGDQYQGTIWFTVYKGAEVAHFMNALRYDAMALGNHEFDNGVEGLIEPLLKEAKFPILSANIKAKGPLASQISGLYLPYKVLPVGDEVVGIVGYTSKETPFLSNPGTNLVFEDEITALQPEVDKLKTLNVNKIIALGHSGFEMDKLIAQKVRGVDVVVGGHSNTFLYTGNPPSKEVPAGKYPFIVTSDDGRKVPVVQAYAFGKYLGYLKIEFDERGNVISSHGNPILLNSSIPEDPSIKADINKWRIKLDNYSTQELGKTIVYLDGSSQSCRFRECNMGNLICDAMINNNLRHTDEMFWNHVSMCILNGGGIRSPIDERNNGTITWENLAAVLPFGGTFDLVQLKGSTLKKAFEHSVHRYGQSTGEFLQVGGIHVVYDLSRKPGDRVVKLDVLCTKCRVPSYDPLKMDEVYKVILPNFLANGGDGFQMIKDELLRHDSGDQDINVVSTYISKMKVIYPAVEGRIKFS
Assay type: cell-based
Procedure: Inhibition of Ecto-5′-nucleotidase Activity. Compounds were evaluated to determine their ecto-5′-nucleotidase (CD73) inhibitory activity. Briefly, CHO-K1 cells stably transfected with human CD73 were generated by LakePharma (Belmont, CA) using molecular cloning of human CD73 (http://www.uniprot.org/uniprot/P21589) and mammalian transient expression vector (P21589.1). After antibiotic selection in CD OptiCHO cell media (Invitrogen, Catalog #12681-011) containing 5 μg/mL Puromycin and 200 μg/mL Hygromycin B, a suspension pool of CHO-CD73 cells was collected and frozen in 7.5% DMSO in cell media without antibiotics.
On the day of the experiment, one vial of CHO-CD73 cells was thawed and suspended in assay media which consisted of 20 mM HEPES, pH 7.4, 137 mM NaCl, 5.4 mM KCl, 1.3 mM CaCl2), 4.2 mM NaHCO3 and 0.1% glucose. To test the ability of compounds to inhibit CD73 enzymatic activity, 2 μL of 500 μM of compounds dissolved in DMSO (50×) were added to a 96-well polystyrene plate containing 58 μL of assay buffer. Next, 20 μL of CHO-CD73 cells in assay buffer were added to assay plate followed by 20 μL of 125 μM AMP (Adenosine 5′-monophosphate monohydrate) in assay buffer. Final assay conditions consisted of 2500 cells per well in 2% DMSO and 25 μM of AMP substrate. After 50 minutes of incubation (37° C. and 5% CO2) and centrifugation at 225×g for 5 mins, 80 μL of supernatant were transferred to a 96-well Spectra Plate (PerkinElmer, cat #6005640) which was pre-dispensed with 20 μL of PiColorLock Gold colorimetric assay reagents (Thermo, cat #30 300 30). The amount of inorganic phosphate was determined by reading the absorbance at 620 nm on an EnVision Multilabel Plate Reader (PerkinElmer). Enzymatic activity of CD73 was based on the amount of phosphate generated. Percentage of activity was calculated based on DMSO and no cells control wells. IC50 values of compounds were determined by four parameter non-linear regression fitting of percentage of activity in GraphPad Prism software.

| SMILES | IC50 [nM] |
| --- | --- |
| CC(C)OC(=O)OCOP(=O)(O)CP(=O)(OCOC(=O)OC(C)C)OC[C@H]1O[C@@H](n2ncc3c(NC4CCCC4)nc(Cl)nc32)[C@H](O)[C@@H]1O (stereo partly shown) | > 1000 |
| COP(=O)(CP(=O)(O)O)OC[C@H]1O[C@@H](n2cnc3c(N(C)C4CCCC4)nc(Cl)nc32)[C@@H](F)[C@@H]1O (stereo partly shown) | < 100 |
| COP(=O)(CP(=O)(O)OC[C@H]1O[C@@H](n2cnc3c(N(C)C4CCCC4)nc(Cl)nc32)[C@@H](F)[C@@H]1O)OC | > 1000 |
| CC(C)(C)CNc1nc(Cl)nc2c1ncn2[C@@H]1O[C@H](COP(=O)(O)CP(=O)(O)O)[C@@H](O)[C@H]1O | < 100 |
| CN(c1nc(Cl)nc2c1ncn2[C@@H]1O[C@H](COP(=O)(CP(=O)(Oc2cccc(Cl)c2)Oc2cccc(Cl)c2)Oc2cccc(Cl)c2)[C@@H](O)[C@H]1O)C1CCCC1 (stereo partly shown) | > 1000 |
| C[C@H](Nc1nc(Cl)nc2c1ccn2[C@@H]1O[C@H](COP(=O)(O)CP(=O)(O)O)[C@@H](O)[C@@H]1F)c1ccc(F)cc1 | < 100 |
| O=P(O)(O)CP(=O)(O)OC[C@H]1O[C@@H](n2cnc3c(NCc4ccccc4)nc(-c4ccccc4)nc32)[C@@H](F)[C@@H]1O | < 100 |
| O=P(O)(O)CP(=O)(O)OC[C@H]1O[C@@H](n2ncc3c(NCc4ccccc4Cl)nc(Cl)nc32)[C@H](O)[C@@H]1O | < 100 |
| COP(=O)(O)CP(=O)(O)OC[C@H]1O[C@@H](n2cnc3c(NC4CCCC4)nc(Cl)nc32)[C@H](O)[C@@H]1O | 100 to 1000 |
| O=P(O)(O)CP(=O)(O)OC[C@H]1O[C@@H](n2ncc3c(N[C@H](c4ccccc4)C(F)(F)F)nc(Cl)nc32)[C@H](O)[C@@H]1O | < 100 |
| C[C@@H](Nc1cc(Cl)nc2c1cnn2[C@@H]1O[C@H](COP(=O)(O)CP(=O)(O)O)[C@@H](O)[C@H]1O)c1ccccc1 | < 100 |
| C[C@H](Nc1nc(Cl)nc2c1ccn2[C@@H]1O[C@H](COP(=O)(O)CP(=O)(O)O)[C@@H](O)[C@H]1O)c1ccccc1F | < 100 |
| C[C@@H](Nc1nc(Cl)nc2c1cnn2[C@@H]1O[C@H](COP(=O)(O)CP(=O)(O)O)[C@@H](O)[C@H]1O)c1ccccc1F | < 100 |
| O=P(O)(O)CP(=O)(O)OC[C@H]1O[C@@H](n2cnc3c(OCc4ccccc4)nc(Cl)nc32)[C@@H](F)[C@@H]1O | < 100 |
| C[C@@H](Nc1nc(Cl)nc2c1cnn2[C@@H]1O[C@H](COP(=O)(O)CP(=O)(O)O)[C@@H](O)[C@@H]1F)c1ccc(F)cc1 | < 100 |
| Cc1nc(NC2CCCC2)c2ncn([C@@H]3O[C@H](COP(=O)(O)CP(=O)(O)O)[C@@H](O)[C@@H]3F)c2n1 | < 100 |
| CCCc1nc(NCc2ccccc2)c2ncn([C@@H]3O[C@H](COP(=O)(O)CP(=O)(O)O)[C@@H](O)[C@H]3O)c2n1 | < 100 |
| O=P(O)(O)CP(=O)(O)OC[C@H]1O[C@@H](n2cnc3c(NCCc4ccccc4)nc(Cl)nc32)[C@@H](F)[C@@H]1O | < 100 |
| O=P(O)(O)CP(=O)(O)OC[C@H]1O[C@@H](n2cnc3c(NCc4cc(Cl)cc(Cl)c4)ncnc32)[C@H](O)[C@@H]1O | < 100 |
| O=P(O)(O)CP(=O)(O)OC[C@H]1O[C@@H](n2cnc3c(NCC4CC4)nc(Cl)nc32)[C@@H](F)[C@@H]1O | < 100 |
| CC(C)Nc1nc(Cl)nc2c1ncn2[C@@H]1O[C@H](COP(=O)(O)CP(=O)(O)O)[C@@H](O)[C@@H]1F | < 100 |
| O=P(O)(O)CP(=O)(O)OC[C@H]1O[C@@H](n2ncc3c(NC4CCCC4)ncnc32)[C@H](O)[C@@H]1O | < 100 |
| Nc1nc(C(O)C2CC2)nc2c1ncn2[C@@H]1O[C@H](COP(=O)(O)CP(=O)(O)O)[C@@H](O)[C@@H]1F (stereo partly shown) | < 100 |
| Cc1nc(NCc2ccccc2)c2ncn([C@@H]3O[C@H](COP(=O)(O)CP(=O)(O)O)[C@@H](O)[C@H]3O)c2n1 | < 100 |
| CC(C)(C)c1ccc(CNc2ncnc3c2ncn3[C@@H]2O[C@H](COP(=O)(O)CP(=O)(O)O)[C@@H](O)[C@H]2O)cc1 | < 100 |
| O=P(O)(O)CP(=O)(O)OC[C@H]1O[C@@H](n2ncc3c(NCc4ccc(Cl)cc4)nc(Cl)nc32)[C@H](O)[C@@H]1O | < 100 |
| CC(C)Sc1nc(NCc2ccccc2)c2ncn([C@@H]3O[C@H](COP(=O)(O)CP(=O)(O)O)[C@@H](O)[C@H]3O)c2n1 | < 100 |
| C[C@H](Nc1nc(Cl)nc2c1ccn2[C@@H]1O[C@H](COP(=O)(O)CP(=O)(O)O)[C@@H](O)[C@@H]1F)c1ccccc1 | < 100 |

The next lines start with the values.

| IC50 [nM] | SMILES |
| --- | --- |
| < 100 | C[C@H](Nc1nc(Cl)nc2c1cnn2[C@@H]1O[C@H](COP(=O)(O)CP(=O)(O)O)[C@@H](O)[C@H]1O)c1ccccc1 |
| < 100 | O=P(O)(O)CP(=O)(O)OC[C@H]1O[C@@H](n2cnc3c(NCc4ccccc4)nc(C(O)c4ccccc4)nc32)[C@@H](F)[C@@H]1O (stereo partly shown) |
| < 100 | O=P(O)(O)CP(=O)(O)OC[C@H]1O[C@@H](n2cnc3c(NC4CCCC4)nc(Cl)nc32)[C@@H](F)[C@@H]1O |
| < 100 | O=P(O)(O)CP(=O)(O)OC[C@H]1O[C@@H](n2ccc3c(NCc4ccccc4)nc(Cl)nc32)[C@@H](F)[C@@H]1O |
| < 100 | CN(c1nc(Cl)nc2c1ncn2[C@@H]1O[C@H](COP(=O)(O)CP(=O)(O)O)[C@@H](O)[C@@]1(C)O)C1CCCC1 |
| < 100 | O=P(O)(O)CP(=O)(O)OC[C@H]1O[C@@H](n2ccc3c(NC4CCCC4)nc(Cl)nc32)[C@@H](F)[C@@H]1O |
| < 100 | O=P(O)(O)CP(=O)(O)OC[C@H]1O[C@@H](n2cnc3c(NC4CCOCC4)nc(Cl)nc32)[C@@H](F)[C@@H]1O |
| < 100 | CNc1nc(Cl)nc2c1ncn2[C@@H]1O[C@H](COP(=O)(O)CP(=O)(O)O)[C@@H](O)[C@@H]1F |
| < 100 | CNc1nc(Cl)nc2c1cnn2[C@@H]1O[C@H](COP(=O)(O)CP(=O)(O)O)[C@@H](O)[C@H]1O |
| < 100 | O=P(O)(O)CP(=O)(O)OC[C@H]1O[C@@H](n2cnc3c(NC4CCCC4)cc(Cl)nc32)[C@@H](F)[C@@H]1O |
| < 100 | C[C@H](Nc1cc(Cl)nc2c1cnn2[C@@H]1O[C@H](COP(=O)(O)CP(=O)(O)O)[C@@H](O)[C@H]1O)c1ccccc1 |
| < 100 | CCC(OP(=O)(O)CP(=O)(O)O)[C@H]1O[C@@H](n2cnc3c(NCc4ccccc4)nc(Cl)nc32)[C@H](O)[C@@H]1O (stereo partly shown) |
| < 100 | CN(c1nc(Cl)nc2c1cnn2[C@@H]1O[C@H](COP(=O)(O)CP(=O)(O)O)[C@@H](O)[C@H]1O)C1CCCC1 |
| < 100 | O=P(O)(O)CP(=O)(O)OC[C@H]1O[C@@H](n2cnc3c(NC4CCCC4)nc(C(F)(F)F)nc32)[C@@H](F)[C@@H]1O |
| < 100 | CCNc1nc(Cl)nc2c1ncn2[C@@H]1O[C@H](COP(=O)(O)CP(=O)(O)O)[C@@H](O)[C@@H]1F |
| < 100 | C[C@H](Nc1nc(Cl)nc2c1cnn2[C@@H]1O[C@H](COP(=O)(O)CP(=O)(O)O)[C@@H](O)[C@@H]1F)c1ccc(F)cc1 |
| < 100 | O=P(O)(O)CP(=O)(O)OC[C@H]1O[C@@H](n2cnc3c(NCc4ccc(Br)cc4)ncnc32)[C@H](O)[C@@H]1O |
| < 100 | C[C@H](Nc1cc(Cl)nc2c1cnn2[C@@H]1O[C@H](COP(=O)(O)CP(=O)(O)O)[C@@H](O)[C@@H]1F)c1ccccc1 |
| < 100 | C[C@H](Nc1nc(Cl)nc2c1cnn2[C@@H]1O[C@H](COP(=O)(O)CP(=O)(O)O)[C@@H](O)[C@H]1O)c1ccccc1F |
| < 100 | O=P(O)(O)CP(=O)(O)OC[C@H]1O[C@@H](n2cnc3c(NCc4ccc(C(F)(F)F)cc4)ncnc32)[C@H](O)[C@@H]1O |
| < 100 | O=P(O)(O)CP(=O)(O)OC[C@H]1O[C@@H](n2cnc3c(N[C@H]4CCOC4)nc(Cl)nc32)[C@@H](F)[C@@H]1O |
| < 100 | C=Cc1nc(NCc2ccccc2)c2ncn([C@@H]3O[C@H](COP(=O)(O)CP(=O)(O)O)[C@@H](O)[C@H]3O)c2n1 |
| < 100 | C=CCc1nc(NCc2ccccc2)c2ncn([C@@H]3O[C@H](COP(=O)(O)CP(=O)(O)O)[C@@H](O)[C@H]3O)c2n1 |
| < 100 | CC(C)Nc1nc(Cl)nc2c1ncn2[C@@H]1O[C@H](COP(=O)(O)CP(=O)(O)O)[C@@H](O)[C@H]1O |
